In patent US8129340B2, “Inhibitors of protein phosphatase 1, GADD34 and protein phosphatase 1/GADD34 complex, preparation and uses thereof” (Institut Gustave Roussy, priority 2006, dated 2012):

Legend:
[1] = test system: CRT; experiment: Inhibitory profile of CRT exposure (pre-incubation with inhibitors, immunocytofluorometry); assay type: cell-based; details: pre-incubation for 1 h
Protocol: FIG. 3S: Inhibitory profile of CRT exposure. Cells were treated with mitoxantrone or inhibitors of PP1/GADD34, after pre-incubation for 1 h with the indicated inhibitors of protein synthesis (cycloheximide), RNA synthesis (actinomycin D), microtubuli (nocodazol), or the actin cytoskeleton (latrunculin A). Then, CRT expression was determined by immunocytofluorometry. Results are means of triplicates±SD for one representative experiment out of three.

[2] = test system: CT26 cells; experiment: Phagocytosis of CT26 tumour cells by dendritic cells (FACS, double positive cells); assay type: cell-based, BALB/c mice; details: within a few hours after treatment
Protocol: FIG. 3A, FIG. 3B: Correlation between tumour cell phagocytosis and CRT exposure. Tumour cells labelled with Cell Tracker Green were cultured with CD11c-expressing DC and the percentage of DC taking up tumour cells was determined (A) and correlated with the CRT surface exposure (B), measured as in FIG. 2E.
Mitoxantrone-treated or control cells were incubated with a blocking chicken anti-CRT antibody, followed by detection of phagocytosis by CD.
Cells were transfected with the indicated siRNAs and optionally treated with rCRT, followed by immunoblot (FIG. 3D) detection of surface CRT (FIG. 3E) and phagocytosis by DC (FIG. 3F). Results are triplicates (X±SD) and representative of three independent experiments. * denotes statistically significant differences using the Student t′ test at p<0.001.
BM cells were flushed from the tibias and femurs of BALB/c mice with culture medium composed of RPMI 1640 medium (Invitrogen Life Technologies) supplemented with 10% heat-inactivated FBS (Invitrogen), sodium pyruvate, 50 μM 2-ME (Sigma), 10 mM HEPES (pH 7.4), and penicillin/streptomycin (Invitrogen). After one centrifugation, BM cells were resuspended in Tris-ammonium chloride for 2 min to lyse RBC. After one more centrifugation, BM cells (1×10^6 cells/ml) were cultured in medium supplemented with 100 ng/ml recombinant mouse FLT3 ligand (R&D systems) in 6-well plates (Costar Corning). After 7 days, the non-adherent and loosely adherent cells were harvested with Versene, washed and transferred in 12-well plates (1.5×10^6 cells/plate) for cocultures with tumour cells.
In 12-well plates, […] adherent CT26 cells were labelled with Celltracker Green (Calbiochem) and then incubated with drugs. In some experiments viable CT26 were coated with 2 μg/10^6 cells of chicken anti-CRT antibody (ABR affinity bioreagents) or an isotype control for 30 min prior to washing and feeding to dendritic cells Cs. Alternatively CT26 cells were coated with 2 μg/10^6 cells of rCRT on ice for 30 min and washed twice prior to addition to dendritic cells. Cells were then harvested, washed three times with medium supplemented with FBS and cocultured with immature DC for 2 hours at a ratio of 1:1 and 1:5. At the end of the incubation, cells were harvested with versene, pooled with non-adherent cells present in the supernatant, washed and stained with CD11c-FITC antibody. Phagocytosis was assessed by FACS analysis of double positive cells. Phagocytic indexes refer to the ratio between values obtained at 4° C. and values obtained at 37° C. of co-incubation between DC and tumour cells.

[3] = test system: CT26 tumours; experiment: Intratumoural treatment of established CT26 tumours in immunodeficient mice; assay type: in vivo, athymic nu/nu Balb/c mice; details: single intratumoural injection
[4] = test system: cell surface CRT; experiment: CRT exposure on enucleated CT26 cells (cytoplasts); assay type: cell-based, murine
Protocol: FIG. 5A: CRT exposure after anthracyclin treatment in the absence of a nucleus. Intact cells or enucleated cells (cytoplasts) were treated for 2 hours with mitoxantrone, followed by immunofluorescence detection of CRT exposure. Inserts show the effective removal of Hoechst 33342-stainable nuclei from the cytoplasts.
Trypsinized CT26 cells were enucleated as described in the publication of Andreau, K. et al. Contagious apoptosis facilitated by the HIV-1 envelope. Fusion-induced cell-to-cell transmission of a lethal signal. J. Cell Sci. 117, 5643-53 (2004). Briefly, cells were treated in 2 ml of complete RPMI medium containing cytochalasin B (10 μg/ml; Sigma) and DNase I (80 U/ml; Sigma). Cell suspension was adjusted to a final concentration of 5×10^6/ml and incubated at 37° C. for 45 minutes before being layered onto a previously prepared discontinuous Ficoll (Pharmacia) density gradient (3 ml of 100%, in 1 ml of 90% and 3 ml of 55% Ficoll Paque layer containing 5 μg/ml cytochalasin B and 40 U/ml DNase I; gradients were prepared in ultracentrifuge tubes and pre-equilibrated at 37° C. in a CO2 incubator overnight). […] Then the cell surface CRT was detected (see materials and methods) and the viability was determined by with propidium iodine staining (2 μg/ml, Sigma) for 5 min followed by cytofluorometric analysis. […] Phagocytosis was assessed by FACS analysis of double positive cells.

[5] = test system: CT26 tumour cells; experiment: Anti-tumour vaccination: dying treated CT26 cells injected in one flank, later challenge with live tumour cells; assay type: in vivo, BALB/c mice
[6] = test system: CT26 tumours; experiment: Intratumoural treatment of established CT26 tumours in immunocompetent mice; assay type: in vivo, BALB/c mice (wild type); details: for therapeutic effect of single agent on established tumours, immunocompetent mice: single intratumoural injection, 14-day-old CT26 tumours
[7] = test system: CRT; experiment: CRT exposure on tumour cell lines of human origin (HeLa, A549, HCT116); assay type: cell-based
[8] = test system: CRT; experiment: CRT exposure on tumour cell lines of murine origin (MCA205, B16F10, J558); assay type: cell-based
[9] = test system: ERp57; experiment: Flow cytometric detection of surface ERp57 on HeLa cells; assay type: cell-based, human; details: 150 nM, 2 h
Protocol: HeLa cells were treated with or without mitoxantrone (MTX, 1 μM) or tautomycin (Tau, 150 nM, Sigma) for 2 h. Cells were washed twice with PBS and fixed in PFA (4% w/v) for 5 min. HeLa cells were stained with an antibody against Erp57 (pAb from Abcam, ab10827) at 1:200 dilution or isotype control, in staining buffer (PBS, 1% FCS) for 30 min on ice, followed by washing. An anti-rabbit Alexa fluor 488 immunoglobulin conjugate (Molecular Probes-Invitrogen) diluted at 1:500 was added for an additional 30 min on ice before washing and analysed by flow cytometry (FACScan, Becton Dickinson). Propidium Iodide (50 μg/ml, Becton Dickinson) was added to the samples to label and exclude permeabilized (dead) cells. The CellQuest software was used to analyse the mean fluorescence intensity (MFI) and the percentage of ERp57 positive cells.

[10] = test system: cell surface CRT; experiment: Fluorescence detection of cell surface CRT on CT26 cells (cytofluorometry); assay type: cell-based, murine; details: agent alone
Protocol: FIG. 1SA, FIG. 1SB: Kinetics of CRT exposure. CT26 cells were treated with mitoxantrone for the indicated period, followed by immunofluorescence staining with a CRT-specific antibody and cytofluorometric analysis.
FIG. 2E: Correlation between CRT exposure and immunogenicity. The surface exposure of CRT was determined by immunofluorescence cytometry while gating on viable (propidium iodine-negative) cells (inserts) and was correlated with the immunogenicity of cell death (as determined in FIG. 1). CO, control; Tg, thapsigargin; Tu, tunicamycin.
FIG. 5E: Kinetics of CRT exposure determined by FACS analysis after incubation of cells with the indicated agents.
FIG. 5F-FIG. 5G: PP1/GADD34 inhibitors render cell immunogenic via CRT. Tumour cells were first transfected with a control siRNA or a CRT-specific siRNA and then treated in vitro with etoposide, alone or in combination with PP1/GADD34 inhibitors. […] The results represent the % of tumour free mice (comprising a total of 12 to 18 mice per group).
CT26 cells (on a glass slide or in 12-well plates) were first washed with FACS buffer (1×PBS, 5% fetus bovine serum, and 0.1% sodium azide) and then incubated with rabbit anti-mouse CRT antibody (1:100, Stressgen) in FACS buffer at 4° C. for 30 min. Cells reacted with anti-rabbit IgG (H+L) Alexa fluor 488-conjugates (1:500) in FACS buffer at 4° C. for 30 min. After washing three times with FACS buffer, surface CRT was detected by cytofluorometric analysis on a FACS Vantage. In some experiments, cells were fixed with 4% paraformaldehyde, counterstained with Hoechst (2 μM; Sigma), followed by fluorescence microscopic assessment with a Leica IRE2 microscope equipped with a DC300F camera.

For `C/C1=C/C(=O)O[C@@H]2C[C@@H](CC[C@H](C)/C=C\C=C\CC1)O[C@@](O)([C@@H]1CSC(=O)N1)C2` [latrunculin A], the “effect on CRT exposure induced by anthracyclins and PP1/GADD34 inhibitors” value [1] was “abolished”.
`O=C1c2c(O)ccc(O)c2C(=O)c2c(NCCNCCO)ccc(NCCNCCO)c21` [mitoxantrone] was tested, and the “phagocytosis of drug-treated tumour cells by DC” value [2] was “acquired the property to be phagocytosed by DC quickly”, the “therapeutic effect of single agent on established tumours, nu/nu mice” value [3] was “no cure” and the “time to CRT exposure in cytoplasts” value [4] was ≤ 1 h. For the same molecule, the “immunogenicity of cell death (protection against tumour growth, anti-tumour vaccination)” value ([5]; dying CT26 cells treated with agent injected into one flank, live tumour cells in opposite flank 8 days later) was “elicited immunogenic cell death”, the “therapeutic effect of single agent on established tumours, immunocompetent mice” value [6] was “able to cause their permanent regression in some but not all cases” and the “CRT exposure on human tumour cell lines” value [7] was “induced CRT exposure”. The “CRT exposure on murine tumour cell lines” value [8] was “induced CRT exposure”.
For `CO[C@H]([C@H](O)CC(=O)[C@@H](C)[C@@H](O)CC[C@@H](C)[C@@H]1O[C@]2(CC[C@@H](C)[C@H](CC[C@H](C)C(C)=O)O2)CC[C@@H]1C)[C@H](OC(=O)C[C@@H](O)C1=C(C)C(=O)OC1=O)C(C)C` [tautomycin], the “therapeutic effect of single agent on established tumours, nu/nu mice” value [3] was “no major therapeutic effect”, the “induction of immunogenic cell death by the inhibitor alone” value ([5]; without cell death inducer) was “not sufficient to induce immunogenic cell death” and the “therapeutic effect combined with a cell death inducer (etoposide or mitomycin C), immunocompetent mice” value ([6]; intratumoural injection with etoposide or mitomycin C) was “stable disease or complete tumour regression”. The “therapeutic effect of single agent on established tumours, immunocompetent mice” value [6] was “no major therapeutic effect”, the “surface exposure of ERp57, HeLa cells” value [9] was “stimulates the surface exposure or ERp57” and the “induction of CRT exposure at the cell surface” value [10] was “efficiently induced”.
